Results taken from PubChem BioAssay (NCI).
Where “and” joins values, the source holds several entries; their conditions need not be identical. Equal values may be shown once.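 48-hour exposure; five concentrations; linearly interpolated endpoints. At the GI50, growth is halved. Definition used: TGI = concentration required for complete inhibition of growth.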

Columns and labels:
Assay in all cases: NCI anticancer screen, dose series, 48 h
K-562 leukemia = test system: K-562 leukemia
RXF 393 renal = test system: RXF 393 renal
UACC-62 melanoma = test system: UACC-62 melanoma
NCI-H23 lung = test system: NCI-H23 lung
SK-MEL-28 melanoma = test system: SK-MEL-28 melanoma
OVCAR-3 ovarian = test system: OVCAR-3 ovarian
HCT-15 colon = test system: HCT-15 colon
SNB-75 CNS = test system: SNB-75 CNS
MOLT-4 leukemia = test system: MOLT-4 leukemia
IGROV1 ovarian = test system: IGROV1 ovarian

SMILES | GI50 (K-562 leukemia) | TGI (K-562 leukemia) | GI50 (RXF 393 renal) | TGI (RXF 393 renal) | GI50 (UACC-62 melanoma) | TGI (UACC-62 melanoma) | GI50 (NCI-H23 lung) | TGI (NCI-H23 lung) | GI50 (SK-MEL-28 melanoma) | TGI (SK-MEL-28 melanoma) | GI50 (OVCAR-3 ovarian) | TGI (OVCAR-3 ovarian) | GI50 (HCT-15 colon) | TGI (HCT-15 colon) | GI50 (SNB-75 CNS) | TGI (SNB-75 CNS) | GI50 (MOLT-4 leukemia) | TGI (MOLT-4 leukemia) | GI50 (IGROV1 ovarian) | TGI (IGROV1 ovarian)
CN(C)c1ccc(/C=N/NC(N)=S)nc1 | 4.54 µM | > 100 µM | 4160 nM | > 100 µM | 3390 nM | > 100 µM | 2390 nM | > 100 µM | 17.9 µM | > 100 µM | 2540 nM | > 100 µM | 4110 nM | > 100 µM | 1820 nM | > 100 µM | 2920 nM | 95.1 µM | – | –
Cc1c(Cn2c(C)nc3c(C(=O)O)cc(N4CCOCC4)cc32)cccc1C(F)(F)F | > 77.2 µM | > 100 µM | 719 nM | > 63.4 µM | 21100 nM | > 100 µM | 81500 nM | > 100 µM | > 100 µM | > 100 µM | 52300 nM | > 100 µM | 4580 nM | > 100 µM | 12300 nM | > 100 µM | 56600 nM | > 100 µM | 40.2 µM | > 100 µM
CSC(=NC(=O)c1ccccc1Cl)SCCSC(=NC(=O)c1ccccc1Cl)SC | – | > 100 µM | – | > 100 µM | – | > 100 µM | – | > 100 µM | – | > 100 µM | – | > 100 µM | – | > 100 µM | – | > 100 µM | – | > 100 µM | – | > 100 µM
COC(=O)/C=C1/SC(=Nc2cccc(Cl)c2)N(CCc2c[nH]c3ccc(O)cc23)C1=O | – | – | 1510 nM | 2.97 µM | 1680 nM | 3.47 µM | 1860 nM | 4.34 µM | 1.69 µM | 3.33 µM | 1540 nM | 3.23 µM | 1500 nM | 3.32 µM | 2110 nM | 5.1 µM | 1000 nM | 5.1 µM | 2 µM | 4.35 µM
CC(Oc1ccc2c(-c3ccc(Cl)cc3)cc(=O)oc2c1)C(=O)O (stereo unspecified) | – | > 100 µM | – | > 100 µM | – | > 100 µM | – | > 100 µM | – | > 100 µM | – | > 100 µM | – | – | – | > 100 µM | – | > 100 µM | – | > 100 µM
CN1C(=O)CCC(N2C(=O)c3cccc(NCCOCCOCCNC(=O)c4cc5c(o4)C(=O)c4ccccc4C5=O)c3C2=O)C1=O (stereo unspecified) | 2.13 µM | 6.52 µM | 1820 nM | 3.79 µM | 1040 nM | 2.35 µM | – | – | 2.04 µM | 4.27 µM | 1530 nM | 4 µM | 1770 nM | 3.83 µM | 2740 nM | 4.72 µM | 2380 nM | 5.8 µM | 1.8 µM | 4.31 µM
COc1ccc2c(c1)c(-c1nc(-c3cn(C)c4ccncc34)cs1)cn2C | 1.9 µM | 4.2 µM | 1710 nM | 3.21 µM | 2090 nM | 4.78 µM | 1810 nM | 3.45 µM | 1.71 µM | 3.15 µM | 1990 nM | 3.77 µM | 1540 nM | 3.33 µM | 14700 nM | 28 µM | – | – | 1.92 µM | 3.65 µM
COc1ccc2cc(-c3cnc4nonc4n3)ccc2c1 | 0.468 µM | > 100 µM | 1260 nM | 7.31 µM | 2320 nM | > 100 µM | 4490 nM | > 100 µM | > 100 µM | > 100 µM | 982 nM | 56.9 µM | 684 nM | > 100 µM | – | – | 1920 nM | > 100 µM | 15.3 µM | > 100 µM
COc1ccc(C(=O)/C=C/c2ccc(OCCCCCCCCCCOc3ccc(/C=C/C(=O)c4ccc(OC)cc4)cc3)cc2)cc1 | – | > 100 µM | – | > 100 µM | – | > 100 µM | – | – | – | > 100 µM | – | – | – | > 100 µM | – | > 100 µM | – | > 100 µM | – | > 100 µM
O=C1c2ccccc2C(=O)N1CCc1ncc(-c2ccccc2)[nH]1 | – | > 100 µM | – | – | – | > 100 µM | – | > 100 µM | – | > 100 µM | – | > 100 µM | – | > 100 µM | – | > 100 µM | – | > 100 µM | – | > 100 µM
[N-]=[N+]=NCN1C(=O)C2C3C=CC(C2C1=O)C1C2C(=O)N(CN=[N+]=[N-])C(=O)C2C31 (stereo unspecified) | – | > 100 µM | – | – | – | > 100 µM | – | > 100 µM | – | > 100 µM | – | > 100 µM | – | > 100 µM | – | – | – | – | – | > 100 µM
COc1ccc(CC(=O)NCCc2ccc(OC)c(OC)c2OC)cc1 | – | > 100 µM | – | > 100 µM | – | – | – | > 100 µM | – | > 100 µM | – | – | – | – | – | > 100 µM | – | > 100 µM | – | > 100 µM
c1ccc(SC(Sc2ccccc2)=C2CCC2)cc1 | – | > 100 µM | – | > 100 µM | – | > 100 µM | – | > 100 µM | – | > 100 µM | – | > 100 µM | – | > 100 µM | – | > 100 µM | – | > 100 µM | – | –
COc1ccc(N2C(=O)C3CC(c4ccc(Br)cc4)c4c([nH]c5ccccc45)C3C2=O)cc1 (stereo unspecified) | – | 27.8 µM | – | – | – | 32.3 µM | – | 28.5 µM | – | 28.5 µM | – | – | – | > 100 µM | – | 22.5 µM | – | 29 µM | – | 26.2 µM
Nc1ncc(-c2ccc3ncnc(Nc4cccc(Cl)c4)c3c2)cn1 | – | – | – | – | 2690 nM | > 100 µM | – | – | – | – | – | – | 217 nM and 1570 nM | > 100 µM | 109 nM | 0.695 µM | – | – | 0.0206 µM | 0.223 µM
CC(C)(C)OC(=O)NCC(CNC(=O)OC(C)(C)C)C(N)=O | – | > 100 µM | – | > 100 µM | – | > 100 µM | – | > 100 µM | – | > 100 µM | – | > 100 µM | – | > 100 µM | – | – | – | > 100 µM | – | > 100 µM
Cc1ccc(OCC2CO2)c(Br)c1 (stereo unspecified) | – | 71.6 µM | – | 26.5 µM | – | 37.7 µM | – | 76.7 µM | – | 85.1 µM | – | 68 µM | – | 29.2 µM | – | – | – | 70.4 µM | – | 37.1 µM
C[C@@H]1C[C@H](N)C[C@H](c2ccncc2NC(=O)c2ccc(F)c(-c3c(F)cccc3F)n2)C1 | 4.1 µM and 4.22 µM | 21.3 µM and > 10 µM | 11000 nM and 7730 nM | 26 µM and > 10 µM | 14300 nM and > 10000 nM | 28.2 µM and > 10 µM | – | – | 10.4 µM and > 10 µM | 22.6 µM and > 10 µM | 14300 nM and > 10000 nM | 28.2 µM and > 10 µM | 11600 nM and > 10000 nM | 25.7 µM and > 10 µM | 2550 nM and 4300 nM | 18.2 µM and > 10 µM | 4910 nM and 5140 nM | 20.6 µM and > 10 µM | 5.05 µM and 8.68 µM | 21 µM and > 10 µM
